Source: patent US8993309B2, “Predictive marker for topoisomerase I inhibitors” (Boston Medical Center Corporation, priority 2008, dated 2015)

What was measured:
topoI [1] = molecular target: T1, topoI (Homo sapiens, UniProt P11387); assay: topoI down-regulation in BRCA1-silenced cells; type: cell-based; conditions: BRCA1-silenced Hela cells
T1 construct: endogenous in cells
T1 sequence (P11387 1-765): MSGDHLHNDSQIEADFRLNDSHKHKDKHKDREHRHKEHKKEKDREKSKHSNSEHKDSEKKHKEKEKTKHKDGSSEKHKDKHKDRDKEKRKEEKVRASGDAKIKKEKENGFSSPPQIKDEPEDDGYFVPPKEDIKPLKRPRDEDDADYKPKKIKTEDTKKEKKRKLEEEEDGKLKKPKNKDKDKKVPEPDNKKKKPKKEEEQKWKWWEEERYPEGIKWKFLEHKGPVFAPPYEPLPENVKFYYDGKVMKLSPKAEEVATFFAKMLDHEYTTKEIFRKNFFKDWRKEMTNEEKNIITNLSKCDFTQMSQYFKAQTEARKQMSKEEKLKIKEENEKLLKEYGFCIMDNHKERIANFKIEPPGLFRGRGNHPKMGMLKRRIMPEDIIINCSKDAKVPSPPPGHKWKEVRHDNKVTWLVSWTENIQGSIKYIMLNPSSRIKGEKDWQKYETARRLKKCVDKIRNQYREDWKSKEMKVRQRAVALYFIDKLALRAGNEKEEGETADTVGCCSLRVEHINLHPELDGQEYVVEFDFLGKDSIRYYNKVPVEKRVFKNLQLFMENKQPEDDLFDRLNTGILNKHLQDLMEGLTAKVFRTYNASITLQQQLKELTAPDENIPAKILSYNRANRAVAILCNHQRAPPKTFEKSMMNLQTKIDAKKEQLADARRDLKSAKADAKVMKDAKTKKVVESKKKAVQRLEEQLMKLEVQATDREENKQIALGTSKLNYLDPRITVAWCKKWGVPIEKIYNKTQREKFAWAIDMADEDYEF

Walker 256 tumor = conditions: experimentally transplanted Walker 256 tumor in rats; cited from earlier work
topoI [2] = molecular target: T2, topoI (Mus musculus, UniProt Q04750); assay: topoI down-regulation in response to CPT in DNA-PK deficient and efficient cells (anti-topoI immunoblot); type: cell-based
T2 construct: endogenous in cells; host or cells: ScH8 (DNA-PK +/+) and ScSv3 (DNA-PK -/-) mouse embryo fibroblasts
T2 sequence (Q04750 1-767): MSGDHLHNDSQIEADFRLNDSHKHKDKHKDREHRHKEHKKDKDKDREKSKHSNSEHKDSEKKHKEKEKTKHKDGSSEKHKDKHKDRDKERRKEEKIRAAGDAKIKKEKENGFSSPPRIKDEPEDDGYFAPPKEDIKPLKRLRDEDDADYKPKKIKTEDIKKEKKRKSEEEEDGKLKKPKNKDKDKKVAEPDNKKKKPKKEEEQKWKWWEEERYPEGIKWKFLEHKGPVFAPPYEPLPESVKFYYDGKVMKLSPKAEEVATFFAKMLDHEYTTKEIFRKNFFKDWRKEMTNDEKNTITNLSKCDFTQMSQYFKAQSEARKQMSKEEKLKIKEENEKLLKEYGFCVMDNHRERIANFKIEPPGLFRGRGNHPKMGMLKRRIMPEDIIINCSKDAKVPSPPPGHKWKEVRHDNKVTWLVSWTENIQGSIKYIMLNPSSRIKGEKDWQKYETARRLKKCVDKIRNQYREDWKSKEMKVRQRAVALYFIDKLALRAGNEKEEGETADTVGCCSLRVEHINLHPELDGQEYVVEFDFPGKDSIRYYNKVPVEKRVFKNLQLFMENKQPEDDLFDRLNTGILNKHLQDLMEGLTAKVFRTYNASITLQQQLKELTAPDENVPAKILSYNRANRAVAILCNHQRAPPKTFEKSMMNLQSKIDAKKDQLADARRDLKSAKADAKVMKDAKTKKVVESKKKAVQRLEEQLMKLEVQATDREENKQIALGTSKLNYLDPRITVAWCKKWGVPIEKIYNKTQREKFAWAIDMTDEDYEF
Experimental: (§1) Protein levels in FIG. 8A were determined by immuno blot analysis of cell lysate with anti-βactin.
(§2) Tissue Culture: Human cervical carcinoma (HeLa) cells, MCF-7 breast cancer cells, BT-474 breast cancer cells and Mouse embryo fibroblasts (MEF) reconstituted for stable expression of DNA-PK (ScH8) and […] MEF (ScSv3, DNA-PK −/−) were grown and maintained in Dulbecco's Modification of Eagle's Medium containing 10% fetal bovine serum, 2 mM L-Glutamine 100 units/mL of Streptomycin and 100 units/mL of Penicillin.
Cell Synchronization and Drug Treatment. MEF cells were phase-synchronized by serum starvation. Cells were incubated for 30 hours in Dulbecco's Modification of Eagle Medium containing 0.1% fetal bovine serum followed by 16 hour incubation in Medium containing 10% fetal bovine serum. Topo I inhibitor treatment was performed using a 25 μM concentration of Irinotecan (Sigma). Transient transfection of cell lines for BRCA1 and BARD1 expression was performed using the Geneporter 2 transfection kit (GenLantis).
Immunoprecipitation and immunoblot analysis: Cell lysates were prepared for immunoprecipitation and soluble proteins were incubated with anti-BRCA1 or anti-topoI (Topogen, Inc.). The immunoprecipitates were subjected to immunoblotting with anti-BRCA1 or anti-topoI. Antigen-antibody complexes were visualized by enhanced chemiluminescence (ECL detection system, GE, Piscataway, N.J.).

[3] = tested on: biosynthesis of nucleic acids; conditions: cited from earlier work
leukemia L-1210 = conditions: experimentally transplanted leukemia L-1210 in mice; cited from earlier work
GFP-topoI and BRCA1 = assay: co-immunostaining of GFP-topoI and BRCA1 after CPT treatment; type: cell-based; conditions: in response to treatment with CPT
DNA-PK -/- cells = assay: cell death of DNA-PK -/- and DNA-PK +/+ cells in response to CPT; type: cell-based, Mouse; conditions: DNA-PK -/- cells compared to DNA-PK +/+ cells, in response to CPT (FIG. 8C)
Experimental: as §1, §2

DNA-PK = molecular target: T3, DNA-PK (Homo sapiens, UniProt P78527); assay: CPT induced topoI downregulation in HeLa cells with or without DNA-PK inhibitor (anti-topoI immunoblot); type: cell-based; conditions: CPT treatment plus DNA-PK inhibitor (FIG. 9)
T3 construct: endogenous in cells; host or cells: HeLa
Experimental: Protein levels were determined by immuno blot analysis of cell lysate with anti-β actin.

HIV-1 = conditions: acute and chronic infections, in vitro; cited from earlier work

CC[C@@]1(O)C(=O)OCc2c1cc1n(c2=O)Cc2cc3ccccc3nc2-1 [CPT, camptothecin]
rate of topoI down-regulation (topoI [1]): decrease in the rate of topoI down-regulation
anti-tumor activity (Walker 256 tumor): potent anti-tumor activity
rate of topoI down-regulation in response to CPT (topoI [2]; DNA-PK +/+ cells compared with DNA-PK deficient cells): significantly higher rate of topoI down-regulation in DNA-PK +/+ cells
degradation of topoI (topoI [2]; ScH8 cells (DNA-PK +/+) treated with CPT, six hours): complete degradation
topoI remained intact (topoI [2]; ScSV3 cells (DNA-PK -/-) treated with CPT, six hours): more than 50%
inhibitory activity toward the biosynthesis of nucleic acids [3]: strong inhibitory activity
anti-tumor activity (leukemia L-1210): potent anti-tumor activity
localization of GFP-topoI and BRCA1 (GFP-topoI and BRCA1): colocalized in DNA repair foci
percentage of cell death (DNA-PK -/- cells): higher percentage of cell death

O=c1cc(N2CCOCC2)oc2c1ccc1ccccc12 [NU7026]
effect on CPT induced topoI downregulation by UPP (DNA-PK): obliterates CTP induced topoI downregulation

CC[C@@]1(O)C(=O)OCc2c1cc1n(c2=O)Cc2cc3c(CN(C)C)c(O)ccc3nc2-1 [Topotecan]
inhibition of HIV-1 infections (HIV-1): inhibit both acute and chronic HIV-1 infections
